Reference: US6482586B1 (priority 1996, dated 2002)
Read-outs that look alike come from different tables or passages of the source.

How the values were obtained:
[1] = tested on: XF-498 cells; assay: Cell sensitization to VT by butyrate treatment; type: cell-based, human; settings: for effect on XF-498 cell sensitivity to VT1 (in words): cells cultured in 2 mM propionate or capronate
Procedure: Semiconfluent cells in microtiter plates were incubated in triplicates with ten fold VT binding domain dilutions and remaining cells after 72 hr were quantitated by staining with 0.1% crystal violet and measuring the optical density at 570 nm using a microtiter plate reader (31).
(§1) XF-498 astrocytoma, ovarian tumour and vero cell lines were cultured in media containing 2 mM sodium butyrate (or propionate or capronate for astrocytoma cells).

[2] = tested on: glycosphingolipid synthesis; assay: Inhibition of glycolipid synthesis; type: cell-based
Procedure: (§2) PPMP(1-phenyl-2-hexadecanoylamino-3-morpholino-1-propanol, Matreya Inc. , Pleasant Gap, Pa.) is a potent inhibitor of glucosylceramide synthesis (36) and thereby prevents the synthesis of most glycolipids. Experiments extablished that 27 μM PPMP was able to inhibit glycosphingolipid synthesis without inducing cell death. XF-498 astrocytoma and vero cells were then incubated at 37° C. with 27 μM PPMP in the presence and absence of 2 mM butyrate for 6-7 days.

[3] = tested on: XF-498 cells; assay: Morphology and growth of treated XF-498 cells; type: cell-based, human; settings: for effect on morphology of XF-498 cells: compound alone in culture medium
Procedure: as §1, §2

[4] = tested on: Gb3 in XF-498 cells; type: cell-based, human
Procedure: After trypsinization, cells (˜1×10^6) were washed with PBS three times, resuspended in a minimum volume, and extracted with 20 volumes of chloroform/methanol (C/M) 2:1 by vol. The extract was partitioned against water and the lower phase partitioned again against theoretical upper phase. The combined lower phase was then evaporated, saponified with 1 N NaOH in methanol and glycolipids reextracted as above . The dried lower phase was dissolved in CM 98:2 and separated by silica chromatography(32). The column was washed extensively with chloroform and glycolipid eluted in acetone/methanol (9:1 by vol.). Gb3 present was detected by tlc overlay binding with VT binding domain1 (16).
Aliquots of the glycolipid extract of human tumor samples or of tumor cell lines were separated by TLC {chloroform, methanol, water-65:25:4 (v/v/v)}. The plates were dried and blocked with 1% gelatin in water at 37° C. overnight. They were then washed three times with 50 mM TBS for 5 min and incubated with 0.1 μg/ml toxin for 1 hour at R.T. After further washing with TBS, plates were incubated with mouse monoclonal anti-VT binding domain1 antibody(33) (2 μg/ml) for VT binding domain1 followed by peroxidase-conjugated goat anti-mouse antibody . Finally, the plates were washed with TBS, and toxin binding was visualized with 4-chloro-1-naphthol peroxidase substrate. A similar plate was prepared and sprayed with orcinol for comparison of glycolipid content.

[5] = tested on: Gb3 of XF-498 cells; assay: HPLC analysis of Gb3 fatty acid composition; type: cell-based, human; settings: butyrate treated XF-498
[6] = tested on: XF-498 cells; type: cell-based, human
[7] = XF-498 cells after treatment, VT1 TLC overlay

| SMILES | effect on butyrate induced VT1 sensitivity of XF-498 cells ([1]; 27 μM PPMP with 2 mM butyrate, not shown) | concentration able to inhibit glycosphingolipid synthesis without inducing cell death [2] | effect on butyrate-induced morphological changes ([3]; PPMP in presence of butyrate) | effect on morphology of XF-498 cells [3] | increase in XF-498 cell sensitivity to VT1 ([1]; cells cultured in 2 mM sodium butyrate) | change in slower migrating Gb3 band [4, 7] | fatty acid content of the slow migrating Gb3 species [5] | effect on intracellular routing of VT1 B [6] | effect on XF-498 cell sensitivity to VT1 (in words) [1] | change in slower migrating Gb3 band [4] |
| --- | --- | --- | --- | --- | --- | --- | --- | --- | --- | --- |
| CCCCCCCCCCCCCCCC(=O)NC(CN1CCOCC1)C(O)c1ccccc1 (stereo not drawn) [PPMP, 1-phenyl-2-hexadecanoylamino-3-morpholino-1-propanol] | prevented | 27 µM | prevented the butyrate-induced morphological changes | no effect |  |  |  |  |  |  |
| CCCC(=O)[O-].[Na+] [butyrate, sodium butyrate] |  |  |  | profound effect | 5000 fold | dramatic, selective increase | markedly increased C16 and decreased C24 fatty acid content | marked change in the intracellular routing |  |  |
| CCCCCC(=O)O [capronate] |  |  |  | no effect |  |  |  |  | no effect | no effect |
| CCC(=O)O [propionate] |  |  |  | similar, but less significant, morphological change |  | selectively increased, but to a lesser extent |  |  | increased to a lesser extent |  |
